Results: ChEMBL document CHEMBL1201862, “PubChem BioAssay data set” (2004)
Calls of active or inactive are those of the source.

What was measured:
[1] = biological target: Photoreceptor-specific nuclear receptor (Homo sapiens, UniProt Q9Y5X4); assay type: functional, cell-based;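 further: CHO-S cells with Gal4-NCOR and VP16-NR2E3 two-hybrid luciferase reporter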
[2] = biological target: T1, Corticotropin-releasing factor receptor 2/Corticotropin-releasing factor-binding protein (Homo sapiens, UniProt P24387+Q13324); test: Dose Response confirmation of uHTS hits for small molecule antagonists of the CRF-binding protein and CRF-R2 receptor complex.; assay type: functional; settings: read-out: IC50_Mean
T1 sequence (Q13324 whole entry): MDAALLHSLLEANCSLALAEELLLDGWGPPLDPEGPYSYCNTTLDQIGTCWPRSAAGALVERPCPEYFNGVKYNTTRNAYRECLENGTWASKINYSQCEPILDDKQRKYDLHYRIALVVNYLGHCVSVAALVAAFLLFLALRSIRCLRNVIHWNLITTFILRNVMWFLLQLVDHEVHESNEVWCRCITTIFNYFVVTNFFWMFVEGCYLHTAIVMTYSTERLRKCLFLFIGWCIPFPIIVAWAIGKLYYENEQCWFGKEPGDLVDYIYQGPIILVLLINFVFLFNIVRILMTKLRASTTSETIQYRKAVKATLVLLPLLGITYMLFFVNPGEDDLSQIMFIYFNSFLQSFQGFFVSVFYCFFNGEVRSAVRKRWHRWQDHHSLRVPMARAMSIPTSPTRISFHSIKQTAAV
T1 sequence (P24387 whole entry): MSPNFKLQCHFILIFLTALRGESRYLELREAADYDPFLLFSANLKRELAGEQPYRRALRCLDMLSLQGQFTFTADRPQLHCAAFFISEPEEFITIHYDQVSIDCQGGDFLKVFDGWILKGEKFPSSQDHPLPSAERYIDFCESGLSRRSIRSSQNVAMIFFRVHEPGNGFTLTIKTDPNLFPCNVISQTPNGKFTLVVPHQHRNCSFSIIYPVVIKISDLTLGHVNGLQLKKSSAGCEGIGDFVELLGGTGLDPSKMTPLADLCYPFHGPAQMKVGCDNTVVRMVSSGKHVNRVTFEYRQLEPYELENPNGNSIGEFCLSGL

[3] = biological target: T1, Corticotropin-releasing factor receptor 2/Corticotropin-releasing factor-binding protein; test: activators of CRF receptor 2 with binding protein – uHTS hits, confirmation (AID 602473); assay type: functional; settings: read-out: EC50_Mean
Caspase-6 = Caspase-6 (Homo sapiens, UniProt P55212); test: inhibition of CASP6 peptide cleavage – biochemical, VEID-R110 fluorescence, cherry-pick, dose response (AID 720632)
[4] = blockers of CRF-binding protein–CRF-R2 complex – cell-based, uHTS hits, 384-well, dose response (AID 651639); assay type: functional, Homo sapiens; settings: read-out: IC50_Mean
fMet-Leu-Phe receptor = fMet-Leu-Phe receptor (Homo sapiens, UniProt P21462); test: formyl peptide receptor binders – dose response (AID 519); assay type: functional
[5] = general mammalian cell viability loss – activator set, cherry-pick, cytotoxicity control for miR-122 modulator project, dose response (AID 720690); assay type: functional, cell-based;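 further: HEK293T human cells scored for general mammalian cytotoxicity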
[6] = general mammalian cell viability loss – inhibitor set, cherry-pick, set 2, cytotoxicity control for miR-122 modulator project, dose response (AID 720697); assay type: functional, cell-based
[7] = biological target: Mitogen-activated protein kinase 10 (Homo sapiens, UniProt P53779); test: Dose response biochemical screening assay for inhibitors of c-Jun N-Terminal Kinase 3 (JNK3). [Related pubchem assays: 746 ]
[8] = biological target: Endoplasmic reticulum aminopeptidase 1 (Homo sapiens, UniProt Q9NZ08); test: inhibition of human ERAP1 enzyme activity – biochemical, cherry-pick, set 2, plate reader, dose response (AID 743314)
[9] = biological target: Bifunctional protein GlmU (Mycobacterium tuberculosis, UniProt P9WMN3); test: Inhibitors of Mycobacterial Glucosamine-1-phosphate acetyl transferase (GlmU). Secondary screen.; set-up: species or system Mycobacterium tuberculosis H37Rv
HeLa = test: viability loss in HeLa cells – cell-based, ATP luminescence, cherry-pick samples, cytotoxicity control, dose response (AID 687004); assay type: functional; settings: Homo sapiens
[10] = embryonic kidney cell viability loss – CellTiter-Glo luminescence, dry powder, set 20, cytotoxicity control, dose response (AID 1117293); assay type: functional, cell-based; settings: HEK293
[11] = Luminescence-based cell-based high throughput dose response assay to identify activators of the DAF-12 from the parasite S. stercoralis (ssDAF-12).; assay type: functional
[12] = viability loss in human Jurkat cells – cell-based, luminescence, cytotoxicity control for P. falciparum gametocyte viability project, dose response (AID 1117277); assay type: functional;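 further: potency reflects loss of cellular ATP meaning fewer viable cells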
[13] = viability inhibitors of stage V gametocytes – luminescence, dose response (AID 1117278); assay type: functional, cell-based;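 further: gametocytes exposed to compound for 24 hours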
[14] = biological target: E3 ubiquitin-protein ligase Mdm2 (Homo sapiens, UniProt Q00987); test: MDM2-luc reporter signal enhancers, multi-concentration potency testing, MDM2 ubiquitin-protein ligase inhibitor program, whole-cell format, luminescence detection, 384-well microplate (AID 1394); assay type: functional;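 further: MDM2 E3 inhibitors raise luminescence so EC50 is for signal enhancement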
[15] = biological target: T2, High affinity choline transporter 1 (Homo sapiens, UniProt Q9GZV3); test: human choline transporter blockers, potency – cell-based, 10-point CRC, membrane potential dye, dose response (AID 588401); assay type: functional;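 further: membrane potential dye fluorescence of choline-evoked depolarization via CHT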
T2 sequence (Q9GZV3 whole entry): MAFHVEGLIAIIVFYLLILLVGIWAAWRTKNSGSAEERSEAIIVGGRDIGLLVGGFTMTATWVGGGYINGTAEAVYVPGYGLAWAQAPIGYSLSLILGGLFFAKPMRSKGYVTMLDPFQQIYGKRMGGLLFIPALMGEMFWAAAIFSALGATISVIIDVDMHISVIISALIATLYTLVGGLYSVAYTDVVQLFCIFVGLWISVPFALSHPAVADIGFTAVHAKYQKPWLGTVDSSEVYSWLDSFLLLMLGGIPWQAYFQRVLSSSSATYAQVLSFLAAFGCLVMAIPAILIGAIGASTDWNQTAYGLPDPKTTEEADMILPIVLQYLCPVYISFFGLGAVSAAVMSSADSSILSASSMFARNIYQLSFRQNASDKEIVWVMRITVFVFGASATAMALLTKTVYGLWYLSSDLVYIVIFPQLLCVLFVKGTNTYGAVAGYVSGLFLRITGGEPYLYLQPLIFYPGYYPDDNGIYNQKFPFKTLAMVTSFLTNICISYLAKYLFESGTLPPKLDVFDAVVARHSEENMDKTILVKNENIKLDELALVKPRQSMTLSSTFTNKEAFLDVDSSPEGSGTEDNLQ

[16] = biological target: T2, High affinity choline transporter 1; test: human choline transporter blockers, potency – cell-based, 5-point CRC, membrane potential dye, dose response (AID 504840); assay type: functional

Sequence of Caspase-6 (P55212 24-179 limits assumed): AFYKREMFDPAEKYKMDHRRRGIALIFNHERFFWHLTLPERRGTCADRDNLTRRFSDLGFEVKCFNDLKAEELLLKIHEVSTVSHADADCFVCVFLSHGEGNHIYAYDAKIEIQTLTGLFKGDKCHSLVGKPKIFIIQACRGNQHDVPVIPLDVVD
Sequence of Caspase-6 (P55212 194-293 limits assumed): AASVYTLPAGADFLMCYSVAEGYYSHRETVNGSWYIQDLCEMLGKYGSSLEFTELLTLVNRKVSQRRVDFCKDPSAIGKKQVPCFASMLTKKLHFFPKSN
Sequence of Bifunctional protein GlmU (P9WMN3 whole entry): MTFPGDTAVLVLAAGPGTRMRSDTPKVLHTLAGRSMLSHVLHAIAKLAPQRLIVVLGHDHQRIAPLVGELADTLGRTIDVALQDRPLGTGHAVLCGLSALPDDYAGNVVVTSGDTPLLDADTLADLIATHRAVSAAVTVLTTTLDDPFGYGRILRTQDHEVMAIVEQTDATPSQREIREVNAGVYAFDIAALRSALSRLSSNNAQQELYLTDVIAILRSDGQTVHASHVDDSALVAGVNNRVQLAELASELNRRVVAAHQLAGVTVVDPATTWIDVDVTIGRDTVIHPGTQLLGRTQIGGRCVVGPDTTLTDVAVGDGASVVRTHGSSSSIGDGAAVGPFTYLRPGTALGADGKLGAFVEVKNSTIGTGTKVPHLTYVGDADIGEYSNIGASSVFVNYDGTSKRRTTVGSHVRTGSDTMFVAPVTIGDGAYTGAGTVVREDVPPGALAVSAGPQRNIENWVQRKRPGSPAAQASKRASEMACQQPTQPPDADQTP
Sequence of fMet-Leu-Phe receptor (P21462 whole entry): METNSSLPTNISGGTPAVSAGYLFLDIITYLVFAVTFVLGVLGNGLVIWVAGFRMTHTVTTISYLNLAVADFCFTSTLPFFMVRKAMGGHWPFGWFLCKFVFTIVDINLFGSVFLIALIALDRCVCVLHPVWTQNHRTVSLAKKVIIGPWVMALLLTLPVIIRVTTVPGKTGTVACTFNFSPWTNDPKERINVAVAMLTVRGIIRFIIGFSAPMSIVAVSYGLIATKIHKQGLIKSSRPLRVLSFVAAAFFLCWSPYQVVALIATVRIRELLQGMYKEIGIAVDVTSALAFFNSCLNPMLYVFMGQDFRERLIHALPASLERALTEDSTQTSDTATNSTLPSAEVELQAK
Sequence of Endoplasmic reticulum aminopeptidase 1 (Q9NZ08 whole entry): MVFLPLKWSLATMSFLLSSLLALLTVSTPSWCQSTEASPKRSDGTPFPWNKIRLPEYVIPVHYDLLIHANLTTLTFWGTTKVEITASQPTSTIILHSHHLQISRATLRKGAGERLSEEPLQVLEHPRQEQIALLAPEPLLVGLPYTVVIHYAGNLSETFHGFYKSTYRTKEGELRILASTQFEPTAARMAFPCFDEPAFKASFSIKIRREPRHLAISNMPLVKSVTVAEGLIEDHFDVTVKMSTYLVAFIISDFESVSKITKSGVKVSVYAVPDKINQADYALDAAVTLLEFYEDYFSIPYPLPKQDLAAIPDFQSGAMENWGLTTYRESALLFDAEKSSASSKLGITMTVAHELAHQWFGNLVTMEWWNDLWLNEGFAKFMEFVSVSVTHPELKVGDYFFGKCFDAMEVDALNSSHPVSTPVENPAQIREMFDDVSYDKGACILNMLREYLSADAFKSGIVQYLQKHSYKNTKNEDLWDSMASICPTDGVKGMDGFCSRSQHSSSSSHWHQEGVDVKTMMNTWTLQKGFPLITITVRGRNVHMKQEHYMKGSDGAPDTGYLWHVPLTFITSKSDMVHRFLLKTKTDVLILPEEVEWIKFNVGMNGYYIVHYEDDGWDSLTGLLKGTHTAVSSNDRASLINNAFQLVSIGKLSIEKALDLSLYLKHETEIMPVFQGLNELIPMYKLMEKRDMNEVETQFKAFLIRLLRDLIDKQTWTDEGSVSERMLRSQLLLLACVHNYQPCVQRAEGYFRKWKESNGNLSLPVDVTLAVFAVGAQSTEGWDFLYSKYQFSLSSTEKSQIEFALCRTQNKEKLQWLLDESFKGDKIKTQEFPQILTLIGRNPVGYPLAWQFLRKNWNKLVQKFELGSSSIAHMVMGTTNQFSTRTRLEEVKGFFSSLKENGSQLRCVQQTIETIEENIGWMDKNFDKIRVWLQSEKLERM
Sequence of Photoreceptor-specific nuclear receptor (Q9Y5X4 whole entry, the tested form may be a part): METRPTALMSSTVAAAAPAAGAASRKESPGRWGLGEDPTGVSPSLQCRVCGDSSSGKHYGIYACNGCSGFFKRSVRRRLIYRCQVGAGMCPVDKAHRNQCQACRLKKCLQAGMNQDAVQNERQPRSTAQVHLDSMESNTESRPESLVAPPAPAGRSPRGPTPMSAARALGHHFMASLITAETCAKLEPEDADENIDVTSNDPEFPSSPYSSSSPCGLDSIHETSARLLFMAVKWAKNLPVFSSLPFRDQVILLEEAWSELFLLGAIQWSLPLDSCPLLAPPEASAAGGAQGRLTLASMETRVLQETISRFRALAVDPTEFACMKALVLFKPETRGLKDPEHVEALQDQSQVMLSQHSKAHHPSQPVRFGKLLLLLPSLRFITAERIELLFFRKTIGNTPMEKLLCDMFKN
Sequence of Mitogen-activated protein kinase 10 (P53779 whole entry): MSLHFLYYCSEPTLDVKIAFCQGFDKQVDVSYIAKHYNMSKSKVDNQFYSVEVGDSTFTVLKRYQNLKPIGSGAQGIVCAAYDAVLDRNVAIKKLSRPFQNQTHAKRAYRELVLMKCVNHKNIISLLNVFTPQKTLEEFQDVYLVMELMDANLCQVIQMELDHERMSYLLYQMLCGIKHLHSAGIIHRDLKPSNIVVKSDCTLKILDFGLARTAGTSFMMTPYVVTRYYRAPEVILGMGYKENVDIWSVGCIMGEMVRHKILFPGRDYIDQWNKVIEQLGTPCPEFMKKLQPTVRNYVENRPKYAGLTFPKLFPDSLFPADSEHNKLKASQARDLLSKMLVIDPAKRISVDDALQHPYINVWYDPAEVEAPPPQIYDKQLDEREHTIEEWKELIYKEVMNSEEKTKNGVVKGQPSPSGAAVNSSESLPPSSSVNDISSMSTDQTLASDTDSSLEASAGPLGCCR
Sequence of E3 ubiquitin-protein ligase Mdm2 (Q00987 whole entry): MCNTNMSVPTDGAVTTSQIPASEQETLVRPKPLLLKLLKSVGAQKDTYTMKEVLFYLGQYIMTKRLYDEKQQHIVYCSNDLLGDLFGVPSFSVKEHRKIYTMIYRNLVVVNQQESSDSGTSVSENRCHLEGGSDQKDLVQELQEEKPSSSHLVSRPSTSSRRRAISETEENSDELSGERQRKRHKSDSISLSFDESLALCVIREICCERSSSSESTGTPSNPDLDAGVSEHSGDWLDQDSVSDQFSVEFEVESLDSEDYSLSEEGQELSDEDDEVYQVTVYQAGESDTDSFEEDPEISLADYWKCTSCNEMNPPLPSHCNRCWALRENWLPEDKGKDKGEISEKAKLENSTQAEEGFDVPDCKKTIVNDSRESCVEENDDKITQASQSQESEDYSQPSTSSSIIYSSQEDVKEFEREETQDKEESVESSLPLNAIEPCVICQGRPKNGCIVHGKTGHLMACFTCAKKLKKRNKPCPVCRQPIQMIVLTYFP

CC(C)c1ccc(C(c2c(O)oc3ccccc3c2=O)c2c(O)oc3ccccc3c2=O)cc1
IC50 [1]: 0.975 µM (active)
IC50 [2]: 3.45 µM (active)
EC50 [3]: > 53 µM (inactive)
AC50 (Caspase-6): 6.05 µM (active)
IC50 [4]: 5.18 µM (active)

C=CCn1c(O)cc(=O)nc1SCCCC
Ki (fMet-Leu-Phe receptor): 30.3 µM (inactive)

CN1C(=O)c2cc(NS(=O)(=O)c3cccc(F)c3)ccc2OC[C@@H]2O[C@@H](CC(=O)NCCN3CCCCC3)CC[C@H]21
AC50 [5]: 26.1 µM (active)
AC50 [6]: 0.254 µM (active)

CC(=O)Oc1ccc(C(=O)Nc2nccs2)cc1
IC50 [7]: > 31 µM (not active)

CCNC(=O)[C@H]1[C@H](CO)[C@H]2Cn3c(ccc(/C=C/c4ccccc4)c3=O)[C@@H]1N2
AC50 [8]: 11.3 µM (active)

Cc1nc(Nc2ccc(C(=O)O)cc2)nc(Nc2ccc(C(=O)O)cc2)c1[N+](=O)[O-]
IC50 [9]: 211 µM (active)

CC(C)NC(=O)Nc1ccc2c(c1)CC(=O)N([C@H](C)CO)C[C@H](C)[C@H](CN(C)S(=O)(=O)c1ccc(Cl)cc1)O2
AC50 (HeLa): 37.9 µM (active)

N#Cc1ccc(S(=O)(=O)Nc2cc(C(F)(F)F)ccc2N2CCCCC2)cc1
AC50 [10]: 46.1 µM (active)

CC1=CC(c2ccccc2)=Nc2ccc(C)cc2N1
IC50 [11]: > 67.5 µM (inactive)

Cc1nccc(O)c1OCc1ccc(Cl)cc1
IC50 [12]: > 83.3 µM (inactive)
IC50 [13]: > 109 µM (inactive)

CCOC(=O)c1sc(=S)n(-c2ccccc2)c1N(C(C)=O)C(C)=O
EC50 [14]: 0.29 µM (not active)
IC50 [15]: 5.01 µM (active)
IC50 [16]: 8.98 µM (active)
